EP0038046A2, “Pharmaceutical amides, and preparation, formulations and use thereof” (THE WELLCOME FOUNDATION LIMITED, priority 1980, dated 1981)
Each block holds one compound with its values, some of them ahead of it.

Assays:
enkephalinase Al = molecular target: T1, enkephalinase Al (Rattus norvegicus, UniProt P07861); assay: Enkephalinase-inhibiting activity, method A (purified enkephalinase A1, 3H-leucine enkephalin hydrolysis to 3H-TGG, TLC separation); format: biochemical, Rats; conditions: leucine enkephalin 5 x 10^-5M, 30°C, IC50 determined graphically, read-out: Approx IC50
T1 construct: the solubilised enzymes contained in the supernatant separated by DEAE- cellulose column chromatography; Enkephalinase Al was further purified by Sephacryl S.300 chromatography; from tissue; host or cells: rat striatum (Triton X-100 solubilised membrane pellet, DEAE-cellulose and Sephacryl S.300 chromatography)
T1 sequence (P07861 1-750): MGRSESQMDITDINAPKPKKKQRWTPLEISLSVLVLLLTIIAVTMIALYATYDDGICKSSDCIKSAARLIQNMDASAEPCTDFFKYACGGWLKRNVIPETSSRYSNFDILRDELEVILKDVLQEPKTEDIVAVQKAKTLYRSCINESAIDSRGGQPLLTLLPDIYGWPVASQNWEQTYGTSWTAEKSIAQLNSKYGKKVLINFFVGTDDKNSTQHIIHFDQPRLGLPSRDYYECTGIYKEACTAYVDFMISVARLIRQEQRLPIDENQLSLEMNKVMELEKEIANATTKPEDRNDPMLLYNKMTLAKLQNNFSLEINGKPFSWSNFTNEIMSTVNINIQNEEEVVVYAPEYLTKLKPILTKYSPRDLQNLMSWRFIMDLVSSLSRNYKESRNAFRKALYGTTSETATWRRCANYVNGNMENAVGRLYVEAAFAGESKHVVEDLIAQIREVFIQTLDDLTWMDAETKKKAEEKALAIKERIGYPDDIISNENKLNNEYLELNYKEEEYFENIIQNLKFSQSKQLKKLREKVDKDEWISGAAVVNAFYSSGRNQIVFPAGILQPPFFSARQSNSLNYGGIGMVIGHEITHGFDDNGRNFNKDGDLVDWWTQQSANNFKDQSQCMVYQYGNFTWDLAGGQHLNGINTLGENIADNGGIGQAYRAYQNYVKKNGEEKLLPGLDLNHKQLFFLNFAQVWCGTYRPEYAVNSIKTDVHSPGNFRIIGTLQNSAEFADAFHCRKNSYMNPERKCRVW

mice = assay: Antinociceptive activity, acetic acid writhing assay (modified Siegmund et al.); format: in vivo
Protocol: The antinociceptive activity of compound 1 was tested in vivo in mice using the following method:-
A modification of the writhing assay of Siegmund et al (Proc. Soc. exp. Biol. Med., 1957, 95: 727-731) was used. Compound 1 dissolved in saline, or saline alone, was administered intracerebroventricularly (i.c.v.) to groups of 5 mice at the doses shown below.-1 hour or 2 hours later, the mice were injected i.p. with the nonciceptive stimulus, i.e. 0.6% (v/v) aqueous acetic acid. […] An antinociceptive compound will reduce the number of writhes and this may be expressed as a percentage inhibition: [formula]

enkephalinase = molecular target: T2, enkephalinase (Rattus norvegicus, UniProt P07861); assay: Enkephalinase-inhibiting activity, method B (striatal membrane homogenate, 3H-leucine enkephalin hydrolysis to 3H-TGG); format: biochemical, rats; conditions: method B (figures marked with an asterisk), 3H-leucine enkephalin 3 x 10^-8M, 22°C, only approximate due to catabolism of 3H-TGG by aminopeptidase(s), read-out: Approx IC50
T2 construct: from tissue; host or cells: rat striatum, crude washed membrane pellet (47,000 g)
T2 sequence (P07861 1-750): T1 sequence (P07861 1-750)
Protocol: B) The following method is-a modification of the method of Malfroy et al; Nature Vol..276, 30 November 1978 pages 523 to 526. Three rats were killed by decapitation and the striata dissected out on ice. The pooled tissues were homogenised in ice-cold Tris/hydrochloric acid buffer (50 mM, pH 7.60, 10.0 ml) and centrifuged (1000 g, 10 mins). The resulting supernatant was recentrifuged (47,000 g, 20 mins) and the second supernatant discarded. The pellet was washed twice and finally resuspended in buffer as before (9.6 ml) and aliquots (1.9 ml) of this suspension incubated at 22°C. […] At the completion of incubation N hydrochloric acid (50 μl) was added, the mixture heated in a boiling water bath for 15 mins and precipitated material then removed by centrifugation (1500 g, 10 mins). Separation of • (a) unchanged ^3H-leucine enkephalin, • ([…]-OH (^3H-TGG), generated from (a) by enkephalinase, and • (c) ^3H-Tyr-OH, generated from both (a) and (b) by aminopeptidase(s) in the supernatant and the subsequent procedure was carried out as described in method A) above.

IC50 (enkephalinase Al): 19 µM
Compound: CSCC[C@@H](NC(=O)C(CC(=O)O)Cc1ccccc1)C(=O)O (mixture of isomers) [compound 12, (2R)-2-[(2RS)-2-Benzyl-3-carboxypropanamido]-4-(methylthio)butanoic acid]

IC50 (enkephalinase Al): 4.3 µM
Compound: CSCC[C@H](NC(=O)C(CC(=O)O)Cc1ccccc1)C(=O)O (mixture of isomers) [compound 13, (2S)-2-[(2RS)-2-Benzyl-3-carboxypropanamido]-4-(methylthio)butanoic acid]

IC50 (enkephalinase Al): > 500 µM
Compound: CC(C)C[C@@H](NC(=O)C(CC(=O)O)Cc1ccccc1)C(=O)O (stereo partly drawn) [compound 11, (2R)-2-[(2RS)-2-Benzyl-3-carboxypropanamido,]-4-methylpentanoic acid]

IC50 (enkephalinase Al): 65 µM
Compound: CC(C)C[C@H](NC(=O)C(CC(=O)O)Cc1ccc([N+](=O)[O-])cc1)C(=O)O (stereo partly drawn) [compound 14]

IC50 (enkephalinase Al): 0.15 µM
Compound: CSCC[C@@H](NC(=O)C(CS)Cc1ccccc1)C(=O)O (stereo partly drawn) [compound 15, (2R)-2-[2RS-2-Benzyl-3-mercaptopropanamido]-4-(methylthio)-butanoic acid]

More lines, now with the values behind:

Compound: CC(C)C[C@H](NC(=O)C(CC(=O)O)Cc1ccccc1)C(=O)O (mixture of isomers) [compound 1, (2S)-2-[(2RS)-2-Benzyl-3-carboxypropanamido]-4-methylpentanoic acid]
IC50 (enkephalinase Al): 17 µM | % inhibition of writhes (mice; 5 µg mouse i.c.v., 1h prior to acetic acid): slight potentiation | % inhibition of writhes (mice; 5 µg mouse i.c.v., 2h prior to acetic acid): 36% | % inhibition of writhes (mice; 10 µg mouse i.c.v., 1h prior to acetic acid): 28% | % inhibition of writhes (mice; 10 µg mouse i.c.v., 2h prior to acetic acid): 48% | % inhibition of writhes (mice; 20 µg mouse i.c.v., 1h prior to acetic acid): 32% | % inhibition of writhes (mice; 20 µg mouse i.c.v., 2h prior to acetic acid): 44% | % inhibition of writhes (mice; 40 µg mouse i.c.v., 1h prior to acetic acid): 75% | % inhibition of writhes (mice; 40 µg mouse i.c.v., 2h prior to acetic acid): 84%

Compound: CC(C)C[C@H](NC(=O)C(CS)Cc1ccccc1)C(N)=O (mixture of isomers) [compound 9, (2S)-2-[(2RS)-2-Benzyl-3-mercaptopropanamido]-4-methylpentanamide]
IC50 (enkephalinase Al): 0.33 µM

Compound: C[C@H](CS)C(=O)N1CCC[C@H]1C(=O)O [Captopril, 1-(D-3-mercapto-2-methylpropanoyl)-L-proline (R,S), reference compound]
IC50 (enkephalinase Al): 3000 µM

Compound: CC(C)C[C@H](NC(=O)[C@@H](CC(=O)O)Cc1ccccc1)C(=O)O [compound 2, (2S)-2-[(2R)-2-benzyl-3-carboxypropanamido]-4-methylpentanoic acid]
IC50 (enkephalinase): 7.2 µM

Compound: CC(C)C[C@H](NC(=O)[C@H](CC(=O)O)Cc1ccccc1)C(=O)O [compound 3, (2S)-2-[(2S)-2-benzyl-3-carboxypropanamido]-4-methylpentanoic acid]
IC50 (enkephalinase): 4 µM

Compound: CC(C)C[C@H](NC(=O)[C@@H](CC(=O)O)Cc1ccccc1)C(N)=O [compound 4, (2S)-2-[(2R)-2-Eenzyl-3-carboxypropanamido]-4-methylpentanamide]
IC50 (enkephalinase Al): > 100 µM

Compound: (2$)-2-[(2R)-2-Benzyl-3-carboxypropanamido]-4-methylpentanamide [compound 10]
IC50 (enkephalinase): > 100 µM

Compound: (2S)-2-[(2RS)-3-Acetylthio-2-benzylpropanamido]-4-methylpentanoic acid, dicyclohexylamine salt [compound 6]
IC50 (enkephalinase Al): 11 µM
